Residue numbers refer to the chain shown, from its start. Read-outs that look alike come from different tables or passages of the source.
Experiments:
androgen receptor (AR) = biological target: T1, androgen receptor (AR) (Homo sapiens, UniProt P10275, T878A); assay: eGFP cellular AR transcription assay (LNCaP eGFP cells, LN-ARR2PB-eGFP); conditions: for anti-AR activity (AR transcriptional inhibition) in words: LNCaP (T877A AR); for inhibition at 3 µM: LNCaP, read-out: % Inhibition (3 μM)
T1 sequence (P10275 1-920 T878A): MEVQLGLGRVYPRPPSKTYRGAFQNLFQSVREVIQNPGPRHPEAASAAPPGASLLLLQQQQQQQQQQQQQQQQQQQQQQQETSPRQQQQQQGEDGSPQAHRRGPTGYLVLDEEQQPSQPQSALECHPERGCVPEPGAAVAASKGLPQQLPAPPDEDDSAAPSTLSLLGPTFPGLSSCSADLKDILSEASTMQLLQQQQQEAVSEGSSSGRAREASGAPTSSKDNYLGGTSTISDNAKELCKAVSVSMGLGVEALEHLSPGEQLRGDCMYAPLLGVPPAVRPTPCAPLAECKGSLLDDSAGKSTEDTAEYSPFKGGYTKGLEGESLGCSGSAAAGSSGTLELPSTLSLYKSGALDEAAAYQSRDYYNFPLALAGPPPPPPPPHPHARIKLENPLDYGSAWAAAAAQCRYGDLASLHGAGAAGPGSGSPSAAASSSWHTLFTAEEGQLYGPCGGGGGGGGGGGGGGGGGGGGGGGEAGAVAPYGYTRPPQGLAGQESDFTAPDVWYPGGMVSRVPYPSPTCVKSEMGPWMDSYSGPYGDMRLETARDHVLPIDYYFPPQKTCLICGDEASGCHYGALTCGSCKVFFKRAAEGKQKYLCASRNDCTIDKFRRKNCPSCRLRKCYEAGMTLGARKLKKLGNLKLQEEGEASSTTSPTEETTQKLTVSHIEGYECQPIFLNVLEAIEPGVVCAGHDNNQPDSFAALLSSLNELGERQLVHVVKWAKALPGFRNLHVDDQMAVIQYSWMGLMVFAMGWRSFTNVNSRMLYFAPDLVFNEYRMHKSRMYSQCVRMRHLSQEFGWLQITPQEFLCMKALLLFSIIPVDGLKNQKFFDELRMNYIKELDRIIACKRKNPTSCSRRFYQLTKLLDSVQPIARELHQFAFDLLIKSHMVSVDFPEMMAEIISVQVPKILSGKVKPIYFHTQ

AR DBD = AR DBD (Homo sapiens, UniProt P10275)
[1] = biological target: T2, AR hormone binding site (recombinant wild type LBD) (Rattus norvegicus, UniProt P15207); assay: Androgen displacement assay (Polar Screen Androgen Receptor Competitor Green Assay Kit); conditions: fluorescence polarization
T2 construct: displace DHT from the ABS site of recombinant wild type LBD
T2 sequence (P15207 651-882 limits assumed): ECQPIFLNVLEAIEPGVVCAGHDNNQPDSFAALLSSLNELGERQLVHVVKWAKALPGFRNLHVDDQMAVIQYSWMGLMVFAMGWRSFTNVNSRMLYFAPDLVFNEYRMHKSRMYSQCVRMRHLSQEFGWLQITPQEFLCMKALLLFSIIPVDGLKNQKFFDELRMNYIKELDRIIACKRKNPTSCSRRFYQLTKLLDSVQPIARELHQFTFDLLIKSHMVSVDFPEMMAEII
Experimental: 5. Androgen displacement assay: The androgen displacement was assessed with the Polar Screen Androgen Receptor Competitor Green Assay Kit as per the instructions of the manufacturer (Lack, Axerio-Cilies et al. 2011).
The ability of the above chemicals to displace DHT from the ABS site of recombinant wild type LBD was measured using a fluorescent polarization assay (PolarScreen™, Life Technologies) at various concentrations.

full-length human AR = biological target: T3, full-length human AR (Homo sapiens, UniProt P10275); assay: ARR3tk-luciferase reporter assay in PC3 cells, wild-type AR; assay type: cell-based
T3 construct: expressed in transfected cells; host or cells: PC3 (AR-negative human prostate cancer cells)
T3 sequence (P10275 1-920): T1 sequence (P10275 1-920 T878A) with A878T
Experimental: (§1) 9. Transient Transfection: The PC3/MCF7 cells were seeded into a 96-well plate (2,000 cells/well). After 24 hrs, the wild-type AR (50 ng/well)/AR mutants and AR3TK-luciferase plasmids (1:3) were co-transfected into PC3 cells or ERE-luciferase (50 ng/well) was transfected into MCF7 cells using transfection reagent TT20. 24 hrs after the transfection, the cells were treated with the compounds at various concentrations. And 24 hrs later, the cells were lysed and the reading was taken using a luminometer.

T877A-AR mutant = biological target: T4, T877A-AR mutant (Homo sapiens, UniProt P10275, T878A); assay: Luciferase reporter assay in PC3 cells, T877A-AR; assay type: cell-based; conditions: presence and absence of R1881
T4 construct: expressed in transfected cells; host or cells: PC3
Experimental: as §1

PSA = assay: Prostate-specific antigen (PSA) assay, secreted PSA from the eGFP assay plates; assay type: cell-based, human
Experimental: 3. Prostate-specific antigen (PSA) assay: The evaluation of PSA levels secreted into the media was performed in parallel to the eGFP assay using the same plates. After cells were incubated for 3 days, 150 μl of the media was taken from each well, and added to 150 μl of PBS.

endogenous wild type AR = assay: ARR3tk-luciferase assay in R1-AD1 cells; assay type: cell-based, human; conditions: 0.1 nM R1881
AR target genes = assay: Microarray genetic profile in LNCaP cells; conditions: 1 nM R1881, 24 h
[2] = eGFP IC50, LNCaP eGFP cells, 0.1 nM R1881
[3] = eGFP IC50 (μM), LNCaP eGFP cells

## COc1c(Cl)cc(-c2csc(N3CCOCC3)n2)cc1Cl [Compound 14288]
Androgen receptor (AR)
  % Inhibition (3 μM): 35.89%
AR DBD
  digestion of AR DBD by trypsin in presence of compound: not digested

## c1cc(-c2csc(N3CCOCC3)n2)ccn1 [Compound 14435]
Androgen receptor (AR)
  anti-AR activity (AR transcriptional inhibition) in words: maintained good potency
Androgen receptor (AR); LNCaP eGFP cells
  partial agonistic effect: no undesired partial agonistic effect
Androgen receptor (AR); eGFP IC50 (μM), Series 1
  IC50: 2.61 µM
Androgen receptor (AR); [2]
  IC50: 3.87 ± 1.26 µM
[1]
  Androgen Displacement IC50: No displacement

## c1cncc(-c2csc(N3CCOCC3)n2)c1 [Compound 14439]
Androgen receptor (AR)
  anti-AR activity (AR transcriptional inhibition) in words: maintained good potency
  inhibition at 3 µM: 81%
Androgen receptor (AR); LNCaP eGFP cells
  partial agonistic effect: no undesired partial agonistic effect
Androgen receptor (AR); [2]
  IC50: 0.16 ± 0.03 µM
[1]
  Androgen Displacement IC50: low displacement

## COc1c(F)cccc1-c1csc(N2CCOCC2)n1 [Compound 14368]
full-length human AR
  AR transcription, wild type AR, presence of R1881: inhibited by 14368 in a dose response manner
  AR transcriptional activity, wild type AR, absence of androgen: only a basal level of transcriptional activity
T877A-AR mutant
  concentration inducing transcriptional activation of T877A AR mutant: higher than 0.4 μM
PSA; Homo sapiens, Series 1
  IC50: 130 nM
Androgen receptor (AR); LNCaP eGFP cells without R1881
  AR transcriptional activity in the absence of R1881: vigorously enhance AR transcriptional activity
Androgen receptor (AR); eGFP IC50 (μM), Series 1
  IC50: 0.03 µM
Androgen receptor (AR); [2]
  IC50: 0.035 µM
[1]
  IC50: 31300 nM
Endogenous wild type AR
  agonistic effect at high concentrations: not observed

## c1ccc(-c2csc(N3CCOCC3)n2)nc1 [Compound 14436]
Androgen receptor (AR)
  anti-AR activity (AR transcriptional inhibition) in words: maintained good potency
Androgen receptor (AR); LNCaP eGFP cells
  partial agonistic effect: no undesired partial agonistic effect
Androgen receptor (AR); eGFP IC50 (μM), Series 1
  IC50: 2.51 µM
Androgen receptor (AR); [2]
  IC50: 4.53 ± 0.26 µM
[1]
  Androgen Displacement IC50: No displacement

## C[C@]1(O)CC[C@H]2[C@@H]3CCC4=CC(=O)CCC4=C3C=C[C@@]21C [Compound R1881, R1881, reference compound]
AR target genes
  FKBP5 gene expression fold change, DMSO+R1881 against DMSO-R1881: 1.61
  KLK2 gene expression fold change, DMSO+R1881 against DMSO-R1881: 3.60
  KLK3 (PSA) gene expression fold change, DMSO+R1881 against DMSO-R1881: 2.42
  TMPRSS2 gene expression fold change, DMSO+R1881 against DMSO-R1881: 2.25

## Fc1ccc(-c2csc(N3CCOCC3)n2)cc1F [Compound 14264]
PSA; Homo sapiens, Series 1
  IC50: 110 nM
Androgen receptor (AR)
  inhibition at 3 µM: 115%
Androgen receptor (AR); eGFP IC50 (μM), Series 1
  IC50: 0.24 µM

## c1cc(-c2csc(N3CCOCC3)n2)cs1 [Compound 14404, 4-(4-(thiophen-3-yl)thiazol-2-yl)morpholine]
PSA; Homo sapiens, Series 1
  IC50: 220 nM
Androgen receptor (AR)
  anti-AR activity (AR transcriptional inhibition) in words: maintained good potency
Androgen receptor (AR); LNCaP eGFP cells
  partial agonistic effect: no undesired partial agonistic effect
Androgen receptor (AR); eGFP IC50 (μM), Series 1
  IC50: 0.26 µM
Androgen receptor (AR); [2]
  IC50: 0.27 ± 0.02 µM
[1]
  Androgen Displacement IC50: No displacement

## O=C(O)c1sc(N2CCOCC2)nc1-c1ccccc1 [Compound 14506]
PSA; Series 1
  IC50: 4500 nM
Androgen receptor (AR); read-out: eGFP IC50
  IC50: 7 µM

## Nc1ccccc1-c1nc(-c2cccnc2)cs1 [Compound 14463]
PSA; Homo sapiens, Series 1
  IC50: 2120 nM
Androgen receptor (AR); eGFP IC50 (μM), Series 1
  IC50: 2.3 µM

## Clc1ncn(-c2csc(N3CCOCC3)n2)c1Br [Compound 14451, 4-(4-(5-bromo-4-chloro-1H-imidazol-1-yl)thiazol-2-yl)morpholine]
PSA; Homo sapiens, Series 1
  IC50: 440 nM
Androgen receptor (AR); eGFP IC50 (μM), Series 1
  IC50: 0.33 µM

## c1ccc(-c2csc(N3CCCCC3)n2)cc1 [Compound 14233]
PSA; Homo sapiens, Series 1
  IC50: 690 nM
Androgen receptor (AR); eGFP IC50 (μM), Series 1
  IC50: 1.02 µM

## CC(=O)Nc1cccc(NC(=O)c2ccc(C)c(-n3cccc3)c2)c1 [Compound 14010]
PSA; Homo sapiens, secreted PSA
  IC50: 19300 nM
Androgen receptor (AR); [3]
  IC50: 32.5 µM

## c1ccc(-c2ccc(N3CCOCC3)s2)cc1 [Compound 14103]
PSA; Homo sapiens, Series 1
  IC50: 511 nM
Androgen receptor (AR)
  inhibition at 3 µM: 100%
Androgen receptor (AR); eGFP IC50 (μM), Series 1
  IC50: 0.522 µM

## Oc1ccc2nc(N3CCOCC3)sc2c1 [Compound 14378]
PSA; Homo sapiens, secreted PSA
  IC50: 8080 nM
Androgen receptor (AR)
  inhibition at 3 µM: 57.5%
Androgen receptor (AR); [3]
  IC50: 7.41 µM

## c1ccc2nc(-c3ccncc3)ccc2c1 [Compound 14320]
PSA; Homo sapiens, secreted PSA
  IC50: 2260 nM
Androgen receptor (AR)
  inhibition at 3 µM: 62%
Androgen receptor (AR); [3]
  IC50: 4.2 µM

## c1cncc(-c2csc(-c3c[nH]c4ccccc34)n2)c1 [Compound 14442]
PSA; Homo sapiens, Series 1
  IC50: 3050 nM
Androgen receptor (AR)
  inhibition at 3 µM: 86.3%
Androgen receptor (AR); eGFP IC50 (μM), Series 1
  IC50: 5.39 µM

## Oc1c(F)cccc1-c1csc(N2CCOCC2)n1 [Compound 14365]
PSA; Homo sapiens, Series 1
  IC50: 160 nM
Androgen receptor (AR)
  inhibition at 3 µM: 97.4%
Androgen receptor (AR); eGFP IC50 (μM), Series 1
  IC50: 0.27 µM

## Cc1ncn(-c2csc(N3CCOCC3)n2)c1C [Compound 14399]
PSA; Series 1
  IC50: 2420 nM
Androgen receptor (AR); read-out: eGFP IC50
  IC50: 3.65 µM

## Oc1cccc(N2Cc3ccccc3C2)c1 [Compound 14309]
PSA; Homo sapiens, secreted PSA
  IC50: 500 nM
Androgen receptor (AR); [3]
  IC50: 0.75 µM

## N#Cc1ccc(-c2nc3ccccc3s2)cc1 [Compound 14489]
PSA; Homo sapiens, secreted PSA
  IC50: 1060 nM
Androgen receptor (AR)
  inhibition at 3 µM: 82.5%
Androgen receptor (AR); [3]
  IC50: 1.79 µM

## FC(F)(F)c1cccc(-c2csc(N3CCOCC3)n2)c1 [Compound 14292]
PSA; Homo sapiens, Series 1
  IC50: 580 nM
Androgen receptor (AR); eGFP IC50 (μM), Series 1
  IC50: 0.61 µM

## c1ccc2c(-c3csc(-c4c[nH]c5ccccc45)n3)c[nH]c2c1 [Compound 14471]
PSA; Homo sapiens, Series 1
  IC50: 1410 nM
Androgen receptor (AR); eGFP IC50 (μM), Series 1
  IC50: 1.02 µM

## c1ccc2c(-c3nc(-c4ccncc4)cs3)c[nH]c2c1 [Compound 14150]
PSA; Homo sapiens, Series 1
  IC50: 1290 nM
Androgen receptor (AR)
  inhibition at 3 µM: 133%
Androgen receptor (AR); eGFP IC50 (μM), Series 1
  IC50: 1.44 µM

## Fc1ccc(-c2csc(-c3ccncc3)n2)cc1 [Compound 14315]
PSA; Homo sapiens, Series 1
  IC50: 632 nM
Androgen receptor (AR)
  inhibition at 3 µM: 83.3%
Androgen receptor (AR); eGFP IC50 (μM), Series 1
  IC50: 1.19 µM
